We go through one compound from PMC10810651, “Discovery of novel and potent CDK8 inhibitors for the treatment of acute myeloid leukaemia” (Journal of Enzyme Inhibition and Medicinal Chemistry, 2024).

In one experiment the test system is A375. Nature of the experiment: Antiproliferative CCK-8 assay, A375. It counts as cell-based. The settings on record: Homo sapiens, A-375; A375, CCK-8 assay, means ± SD; read-out: GC50 (the source's name). An excerpt:
(§1) Compounds12, 13 and 30 were selected for further cell activity assessments based on the enzymatic activity assessment results. molm-13 and MV4-11(acute myeloid lineage leukaemia cells), MGC-803 (gastric cancer cell), MDA-MB-231(breast cancer cell), A375 (melanoma cell), A549 (lung cancer cell), HCT-116, SW-480 and HT-29 (colorectal cancer cells) were selected to evaluate antitumor activity in vitro, GES-1 (gastric mucosal epithelial cell) was selected to evaluate toxicity in vitro.
(§2) CO2 atmosphere incubator for 24 h. Then, medium with compound at the concentrations of 100, 20, 4, 0.8, 0.016 μM was added into each well for another 48 h and incubated with CCK-8 (10 μL) for 2 h at 37 °C. The absorbance value at 450 nm was measured by the microplate reader (PerkinElmer Envision). […]

A further experiment concerns the target CYP 1A2 (Homo sapiens, UniProt P05177). As to the kind of experiment: CYP inhibition activity, 1A2. The class given is in vitro ADME. An excerpt: Table 7. CYP inhibition activity. | column: IC50 (μM) / 1A2
For the next experiment, the system named is STAT1 S727. Nature of the experiment: Phosphorylation of STAT1 S727, western blot. The class given is cell-based. The settings on record: HCT-116 cells, 1, 2, 4 μM, 12 h. How it is done:
It has been reported that CDK8 could specifically target the transactivation domain of STAT1 at Ser727 phosphorylation. HCT-116 cells were treated with compounds 12 with different concentrations of 1 μM, 2 μM, 4 μM separately to verify compound 12 could inhibit the phosphorylation of STAT1 Ser727. […] It’s reported that CDK8 was also involved in S726 phosphorylation of STAT5 in AML cells.
Figure 6. Compound 12 inhibited phosphorylation of STAT1 S727 and STAT5 S726. (A) Compound 12 suppressed the phosphorylation of STAT1 S727 in a dose-dependent manner. HCT-116 cells were treated with compound for 12 h. (B) Compound 12 suppressed the phosphorylation of STAT5 S726 in a dose dependent manner. HL-60 cells were treated with or without compound for 12 h. The samples were analysed by Western blot.
1.7 The effect of compound on phosphorylation of STAT1 S727
HCT-116 cells were seeded into 60 mm cultural dishes at a density of 1.5×10^6 cells per dishes. […] Levels of total STAT1, phosphorylated STAT1 S727, Y701 and GAPDH were analyzed. […]
Levels of total STAT5, phosphorylated STAT5 S726 and GAPDH were analyzed.
The results were expressed as the means ± SEMs (SPSS software), and the differences between groups were evaluated using Turkey’s method (GraphPad Software). […]

A further experiment has as its system MDA-MB-231. As to the kind of experiment: Antiproliferative CCK-8 assay, MDA-MB-231. The class given is cell-based. The settings on record: Homo sapiens; MDA-MB-231, CCK-8 assay, means ± SD; read-out: GC50 (the source's name).
Source text: as §1, §2

In the next experiment the target is CDK6 (Homo sapiens, UniProt Q00534). As to the kind of experiment: CDKs selectivity, CDK6. The class given is biochemical. An excerpt:
CDK7 and CDK9 with the same transcription function and CDK2 and CDK6 were selected to evaluate the selectivity of compound 12.

For another experiment, the target named is CYP 2C9 (Homo sapiens, UniProt P11712). Nature of the experiment: CYP inhibition activity, 2C9. It counts as in vitro ADME. The source says: Table 7. CYP inhibition activity. | column: IC50 (μM) / 2C9
In a further experiment the target is CDK8 (Homo sapiens, UniProt P49336). As to the kind of experiment: Biotin-pulldown assay. It counts as binding. More on the design: endogenous in cells; host or cells: HCT-116. The settings on record: HCT-116 or CDK8-transfected HEK293T cells; 2 μM biotinylated compound; 1, 2, 4 μM. How it is done:
In previous study, a biotinylated compound with favourable CDK8 inhibition activity was designed and synthesized. Here, the pulldown assay was performed to determine compound 12 could bind CDK8. HCT-116 cells or HEK293T cells transfected with CDK8 plasmid labelled were treated with 2 μM biotinylated compound and compounds 12 with different concentrations of 1 μM, 2 μM, 4 μM separately.
CO2 atmosphere incubator for 24 h. Then, medium with compound at the concentrations of 100, 20, 4, 0.8, 0.016 μM was added into each well for another 48 h and incubated with CCK-8 (10 μL) for 2 h at 37 °C. The absorbance value at 450 nm was measured by the microplate reader (PerkinElmer Envision).
The kinase inhibition was detected by ADP-Glo™ Kinase Assay (Promega) using a black 384-well plate. The active CDK8 kinase was diluted in mixture (5 ng enzyme, 0.5 μg substrate, 50 μM DTT, 1 μL reaction buffer and added ddH2O to 3 μL each well) and the final ATP concentrations of was 50 μM. […] The data was collected by the microplate reader. […]
were broken by ultr asonic treatment and centrifuged at 12000 rpm for 20 min. The supernatant was analyzed by western blot. […]
After co-treated with 2 μM biotinylated compound and compound 12 for 12 h, HCT-116 cells were lysed with NP-40 containing PMSF and centrifuged at 14000 r for 30 min at 4 °C. […] The samples were analyzed by western blot.

The subject of another experiment is SW480. Nature of the experiment: Antiproliferative CCK-8 assay, SW480. The class given is cell-based. Conditions: Homo sapiens; SW480, CCK-8 assay, means ± SD; read-out: GC50 (the source's name).
Source text: as §1, §2

CYP 1A2, sequence (P05177 whole entry): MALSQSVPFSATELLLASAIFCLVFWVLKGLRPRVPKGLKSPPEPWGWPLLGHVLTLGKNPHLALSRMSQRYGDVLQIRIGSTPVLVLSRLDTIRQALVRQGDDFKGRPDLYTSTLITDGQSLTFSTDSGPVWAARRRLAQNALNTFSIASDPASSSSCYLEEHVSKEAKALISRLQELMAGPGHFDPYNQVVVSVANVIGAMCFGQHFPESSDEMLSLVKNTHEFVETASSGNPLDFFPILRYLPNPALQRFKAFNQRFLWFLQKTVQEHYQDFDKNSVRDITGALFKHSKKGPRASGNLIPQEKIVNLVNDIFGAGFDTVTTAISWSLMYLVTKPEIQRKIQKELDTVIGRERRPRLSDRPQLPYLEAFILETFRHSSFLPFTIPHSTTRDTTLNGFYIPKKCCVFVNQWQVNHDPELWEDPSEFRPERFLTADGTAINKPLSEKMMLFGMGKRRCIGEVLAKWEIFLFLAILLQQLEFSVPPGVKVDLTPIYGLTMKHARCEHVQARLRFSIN
CDK6, sequence (Q00534 whole entry): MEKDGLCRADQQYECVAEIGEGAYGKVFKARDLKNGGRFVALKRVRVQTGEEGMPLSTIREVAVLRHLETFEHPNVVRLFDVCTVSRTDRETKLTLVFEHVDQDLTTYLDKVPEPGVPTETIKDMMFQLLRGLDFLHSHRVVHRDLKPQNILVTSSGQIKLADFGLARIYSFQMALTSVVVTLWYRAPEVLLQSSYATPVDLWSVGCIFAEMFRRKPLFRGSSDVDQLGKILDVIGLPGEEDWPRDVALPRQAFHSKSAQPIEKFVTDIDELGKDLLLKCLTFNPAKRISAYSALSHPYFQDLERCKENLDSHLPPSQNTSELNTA
CYP 2C9, sequence (P11712 whole entry): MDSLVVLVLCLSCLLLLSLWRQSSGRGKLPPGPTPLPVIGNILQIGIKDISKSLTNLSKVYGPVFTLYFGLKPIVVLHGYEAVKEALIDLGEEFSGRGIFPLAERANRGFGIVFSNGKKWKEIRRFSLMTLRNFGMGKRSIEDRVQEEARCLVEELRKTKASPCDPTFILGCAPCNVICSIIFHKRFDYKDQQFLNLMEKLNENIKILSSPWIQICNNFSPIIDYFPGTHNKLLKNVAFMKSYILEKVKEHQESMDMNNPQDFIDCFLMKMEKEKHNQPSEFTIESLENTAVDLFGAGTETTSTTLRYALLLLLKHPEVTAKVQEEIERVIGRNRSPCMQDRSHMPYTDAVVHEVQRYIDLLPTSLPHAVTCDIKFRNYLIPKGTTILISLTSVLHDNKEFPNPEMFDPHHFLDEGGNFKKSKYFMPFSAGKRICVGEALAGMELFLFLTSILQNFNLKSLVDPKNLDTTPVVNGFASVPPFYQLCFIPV
CDK8, sequence (P49336 whole entry): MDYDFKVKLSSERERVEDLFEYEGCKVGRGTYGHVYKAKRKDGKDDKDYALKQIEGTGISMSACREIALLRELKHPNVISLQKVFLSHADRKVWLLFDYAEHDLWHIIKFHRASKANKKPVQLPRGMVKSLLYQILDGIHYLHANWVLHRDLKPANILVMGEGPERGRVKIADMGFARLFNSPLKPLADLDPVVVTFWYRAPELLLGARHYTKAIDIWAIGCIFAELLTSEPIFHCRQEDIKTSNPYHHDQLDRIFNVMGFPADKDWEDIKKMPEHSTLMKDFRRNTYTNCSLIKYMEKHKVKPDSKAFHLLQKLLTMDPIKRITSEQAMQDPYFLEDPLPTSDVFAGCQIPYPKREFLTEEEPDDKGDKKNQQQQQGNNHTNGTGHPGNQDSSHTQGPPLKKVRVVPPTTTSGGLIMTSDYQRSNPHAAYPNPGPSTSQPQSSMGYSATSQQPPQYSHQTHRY

As for `NC(=O)c1cccc(-c2cnc3[nH]cc(-c4ccoc4)c3c2)c1` [Compound 12, 3-(3-(furan-3-yl)-1H-pyrrolo[2,3-b]pyridin-5-yl)benzamide], the IC50 with A375 is 1 ± 0.23 µM; at CYP 1A2 it was > 50 µM; in the experiment with MDA-MB-231 it was > 50 µM; against CDK6, 0.352 ± 0.0365 µM; at CYP 2C9, > 50 µM; in the experiment with SW480, 6.05 ± 2.26 µM. The “Phosphorylation of STAT1 S727” value in the experiment with STAT1 S727 was “significantly inhibited in a dose-dependent manner”. For the same compound, the “Competition with biotinylated compound for binding to CDK8” value on CDK8 was “could inhibit the binding of biotinylated compound to CDK8”.
